Measured values: patent publication US9480261B1, “Insecticidal strain of Serratia for control of brown marmorated stink bug (BMSB), Halyomorpha halys” (priority 2014, dated 2016)

What was measured:
Test in all cases: Antibiotic susceptibility, disk method on L-agar; as to Antibiotic resistance of strain ATCC 13880: key: R—Resistant; I—Intermediate; S—Susceptible; as to Antibiotic resistance of strain BF1: key: R—Resistant; I—Intermediate; S—Susceptible; as to Antibiotic resistance of strain NRRL B-50575: key: R—Resistant; I—Intermediate; S—Susceptible; as to Antibiotic resistance of strain TBSB-08: key: R—Resistant; I—Intermediate; S—Susceptible; as to Antibiotic resistance of strain TBSB-09: key: R—Resistant; I—Intermediate; S—Susceptible
NRRL B-50575 = format: cell-based, Serratia; conditions: for Antibiotic resistance of strain NRRL B-50575: disk method, L-agar, 25° C.; for resistance to antibiotics of NRRL B-50575 (in words): list of identifying characteristics
Method: (§1) Antibiotic Susceptibility: Two agar plates were streaked for growth with NRRL B-50575, and 8 paper discs, each soaked in a different antibiotic, were placed on the agar, with 4 discs on each plate. Disks containing the following antibiotics were used/obtained from Remel (Lenexa Kans.): ampicillin (10 μg), chloramphenicol (30 μg), erythromycin (30 μg), kanamycin (30 μg), neomycin (30 μg), tetracycline (30 μg), triple sulfa (300 μg) and vancomycin (30 μg). The plates were incubated for 24 hours at 25° C., and after this incubation period the zone of inhibition around each disc was measured.
(§2) The diffusible pink pigment (FIG. 4) produced by NRRL B-50575 (TP 07) was different from the red pigment of BF1 and ATCC 13880 (ATCC-SM), and the pigment was made at temperatures below 25° C. Antibiotic susceptibility was determined using the disk method per manufacturer's instructions on L-agar, incubated at 25° C. (Table 6). All of the pink bacterial strains had the similar antibiotic resistance. They differed in sensitivity to tetracycline, kanamycin, and chloramphenicol. They also differed from BF1 and ATCC 13880 in sensitivity to erythromycin.

TBSB-09 = format: cell-based; conditions: 25° C.
Method: as §1, §2

TBSB-08 = format: cell-based; conditions: 25° C.
Method: as §1, §2

Serratia marcesans BF1 = format: cell-based, Serratia marcescens; conditions: 25° C.
Method: as §1, §2

ATCC 13880 = format: cell-based, Serratia marcescens; conditions: 25° C.
Method: as §1, §2

## NC[C@H]1O[C@H](O[C@H]2[C@H](O)[C@@H](O[C@H]3O[C@H](CO)[C@@H](O)[C@H](N)[C@H]3O)[C@H](N)C[C@@H]2N)[C@H](O)[C@@H](O)[C@@H]1O [Kanamycin, kanamycin]
NRRL B-50575
  Antibiotic resistance of strain NRRL B-50575: S
TBSB-09
  Antibiotic resistance of strain TBSB-09: S
TBSB-08
  Antibiotic resistance of strain TBSB-08: I
Serratia marcesans BF1
  Antibiotic resistance of strain BF1: S
ATCC 13880
  Antibiotic resistance of strain ATCC 13880: S

## CC1(C)S[C@@H]2[C@H](NC(=O)[C@H](N)c3ccccc3)C(=O)N2[C@H]1C(=O)O [Ampicillin, ampicillin]
NRRL B-50575
  Antibiotic resistance of strain NRRL B-50575: R
  resistance to antibiotics of NRRL B-50575 (in words): resistant
TBSB-09
  Antibiotic resistance of strain TBSB-09: R
TBSB-08
  Antibiotic resistance of strain TBSB-08: R
Serratia marcesans BF1
  Antibiotic resistance of strain BF1: R
ATCC 13880
  Antibiotic resistance of strain ATCC 13880: R

## CN(C)[C@@H]1C(O)=C(C(N)=O)C(=O)[C@@]2(O)C(O)=C3C(=O)c4c(O)cccc4[C@@](C)(O)[C@H]3C[C@@H]12 [Tetracycline, tetracycline]
NRRL B-50575
  Antibiotic resistance of strain NRRL B-50575: I
TBSB-09
  Antibiotic resistance of strain TBSB-09: R
TBSB-08
  Antibiotic resistance of strain TBSB-08: I
Serratia marcesans BF1
  Antibiotic resistance of strain BF1: R
ATCC 13880
  Antibiotic resistance of strain ATCC 13880: R

## O=C(N[C@H](CO)[C@H](O)c1ccc([N+](=O)[O-])cc1)C(Cl)Cl [Chloramphenicol, chloramphenicol]
NRRL B-50575
  Antibiotic resistance of strain NRRL B-50575: I
  resistance to antibiotics of NRRL B-50575 (in words): intermediate
TBSB-09
  Antibiotic resistance of strain TBSB-09: S
TBSB-08
  Antibiotic resistance of strain TBSB-08: I
Serratia marcesans BF1
  Antibiotic resistance of strain BF1: S
ATCC 13880
  Antibiotic resistance of strain ATCC 13880: I

## CN[C@H](CC(C)C)C(=O)N[C@H]1C(=O)N[C@@H](CC(N)=O)C(=O)N[C@H]2C(=O)N[C@H]3C(=O)N[C@H](C(=O)N[C@H](C(=O)O)c4cc(O)cc(O)c4-c4cc3ccc4O)[C@H](O)c3ccc(c(Cl)c3)Oc3cc2cc(c3O[C@@H]2O[C@H](CO)[C@@H](O)[C@H](O)[C@H]2O[C@H]2C[C@](C)(N)[C@H](O)[C@H](C)O2)Oc2ccc(cc2Cl)[C@H]1O [Vancomycin, vancomycin]
NRRL B-50575
  Antibiotic resistance of strain NRRL B-50575: R
  resistance to antibiotics of NRRL B-50575 (in words): resistant
TBSB-09
  Antibiotic resistance of strain TBSB-09: R
TBSB-08
  Antibiotic resistance of strain TBSB-08: R
Serratia marcesans BF1
  Antibiotic resistance of strain BF1: R
ATCC 13880
  Antibiotic resistance of strain ATCC 13880: R

## CC[C@H]1OC(=O)[C@H](C)[C@@H](O[C@H]2C[C@@](C)(OC)[C@@H](O)[C@H](C)O2)[C@H](C)[C@@H](O[C@@H]2O[C@H](C)C[C@H](N(C)C)[C@H]2O)[C@](C)(O)C[C@@H](C)C(=O)[C@H](C)[C@@H](O)[C@]1(C)O [Erythromycin, erythromycin]
NRRL B-50575
  Antibiotic resistance of strain NRRL B-50575: R
  resistance to antibiotics of NRRL B-50575 (in words): resistant
TBSB-09
  Antibiotic resistance of strain TBSB-09: R
TBSB-08
  Antibiotic resistance of strain TBSB-08: R
Serratia marcesans BF1
  Antibiotic resistance of strain BF1: I
ATCC 13880
  Antibiotic resistance of strain ATCC 13880: I

## neomycin
NRRL B-50575
  Antibiotic resistance of strain NRRL B-50575: S
  resistance to antibiotics of NRRL B-50575 (in words): susceptible
TBSB-09
  Antibiotic resistance of strain TBSB-09: S
TBSB-08
  Antibiotic resistance of strain TBSB-08: S
Serratia marcesans BF1
  Antibiotic resistance of strain BF1: S
ATCC 13880
  Antibiotic resistance of strain ATCC 13880: S
